Test results published in PubChem BioAssay (NCI).
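Dose response: 5 concentrations. Exposure: 48 h. Format: 96-well plates. Endpoint: linear interpolation; highest concentration if not reached. TGI: total growth inhibition.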

Key:
Assay in all cases: growth of human tumour cells (NCI), 48 h
[1] = system: HCT-116 colon
[2] = system: A498 renal
[3] = system: SW-620 colon
[4] = system: HT29 colon
[5] = system: CAKI-1 renal
[6] = system: SF-268 CNS
[7] = system: COLO 205 colon
[8] = system: A549 NSCLC
[9] = system: PC-3 prostate
[10] = system: MDA-MB-435
[11] = system: HL-60(TB) leukemia
[12] = system: MOLT-4 leukemia
[13] = system: OVCAR-5 ovarian
[14] = system: OVCAR-4 ovarian
[15] = system: NCI-H522 lung
[16] = system: ACHN renal
[17] = system: LOX IMVI melanoma
[18] = system: MCF7 breast
[19] = system: SK-MEL-28 melanoma
[20] = system: DU-145 prostate
[21] = system: HOP-92 NSCLC
[22] = system: UACC-257 melanoma
[23] = system: MDA-N
[24] = system: SK-OV-3 ovarian
[25] = system: K-562 leukemia
[26] = system: NCI-H226 lung
[27] = system: SK-MEL-5 melanoma
[28] = system: CCRF-CEM leukemia
[29] = system: SN12C renal
[30] = system: SNB-19 CNS
[31] = system: MALME-3M melanoma
[32] = system: T-47D breast
[33] = system: SK-MEL-2 melanoma
[34] = system: OVCAR-8 ovarian
[35] = system: NCI-H23 lung
[36] = system: HCC-2998 colon
[37] = system: BT-549 breast
[38] = system: MDA-MB-231 breast
[39] = system: UO-31 renal
[40] = system: SF-539 CNS
[41] = system: SR leukemia
[42] = system: RPMI-8226 leukemia
[43] = system: NCI-H460 lung
[44] = system: UACC-62 melanoma
[45] = system: 786-0 renal
[46] = system: SF-295 CNS
[47] = system: OVCAR-3 ovarian
[48] = system: U251 CNS
[49] = system: HCT-15 colon
[50] = system: HS 578T breast
[51] = system: NCI/ADR-RES ovarian
[52] = system: M14 melanoma
[53] = system: EKVX NSCLC
[54] = system: SNB-75 CNS
[55] = system: IGROV1 ovarian
[56] = system: KM12 colon
[57] = system: TK-10 renal
[58] = system: HOP-62 NSCLC
[59] = system: RXF 393 renal

Measured: TGI

CSc1ccc(Nc2cc(=O)[nH]c(=O)[nH]2)cc1
not listed: [53] | [54] | [55] | [56] | [57] | [58] | [59]
> 100 µM: all other assays above

CC(=O)c1ccc2c(c1)CC1(C2)Cc2cc3c(c(C(=O)O)c2C1)CCC3 (stereo not drawn)
not listed: [30] | [33] | [52]
> 100 µM: all other assays above
